Active and inactive are the calls of the source.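 The calls were made as follows: active = caspase luminescence falls with dose and the half-maximal concentration AC50 from the fitted curve is at or below a set limit; inconclusive = flat fit at 30 to 70% signal loss, or invalid fit; inactive = AC50 above the limit, or signal rises instead.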
What follows are compounds tested on INS-1E cytokine-induced caspase-3/7, Caspase-Glo luminescence, 48 h (assay: suppression of cytokine-driven beta-cell apoptosis – INS-1E rat cells, luminescence, orthogonal assay for beta-cell apoptosis protection project, dose response (AID 463206)).

Row | Structure (SMILES) | AC50
1 | Cc1ccc(N(CC(=O)Nc2cc(C)cc(C)c2)S(=O)(=O)c2c(C)noc2C)cc1 | > 26 µM (inactive)
2 | Oc1c(CN2CCN(c3ccc(F)cc3)CC2)cc(Cl)c2cccnc12 | > 26 µM (inactive)
3 | CCOc1ccc(OCc2ccc(C(=O)N/N=C(\C)c3ccccn3)cc2)cc1 | > 26 µM (inactive)
4 | O=c1c2ccccc2nc(N/N=C/c2c(O)ccc3ccccc23)n1O | > 26 µM (inactive)
5 | N#CC1=C(N)N2C(=C(C#N)C1c1ccc(Br)cc1)Nc1ccccc12 (centres undefined) | > 26 µM (inactive)
6 | CCOC(=O)N1CCN(C(=O)CSCC(=O)Nc2nc(-c3ccc(-c4ccccc4)cc3)cs2)CC1 | > 26 µM (inactive)
7 | COC1=CC(=O)[C@]2(C=C1OC)OC[C@@H]1Oc3c(ccc4c3C=CC(C)(C)O4)C(=O)[C@@H]12 | > 26 µM (inactive)
8 | COc1ccc(C)cc1NS(=O)(=O)c1ccc(NC(=O)CN(c2cc([N+](=O)[O-])ccc2C)S(C)(=O)=O)cc1 | > 26 µM (inactive)
9 | NC1=NC[C@@H](CC2CCCCC2)N1CCc1cc(C(F)(F)F)cc(C(F)(F)F)c1 | > 26 µM (inactive)
10 | N#Cc1ccc(-c2csc(NNC(=O)c3ccccc3)n2)cc1 | > 26 µM (inactive)
11 | O=C(/C=C/c1ccc(-c2ccccc2)cc1)NCc1cccnc1 | > 26 µM (inactive)
12 | Nc1c(Cl)ncnc1N/N=C/c1ccc2ccccc2n1 | > 26 µM (inactive)
13 | COc1ccc(-n2c(-c3ccc(Br)cc3)c[n+]3c2CCCCC3)cc1 | > 26 µM (inactive)
14 | CCOc1cc(/C=C2\CCC/C(=C\c3cc(Cl)c(O)c(OCC)c3)C2=O)cc(Cl)c1O | 9.51 µM
15 | OC(c1cc(-c2ccc(Cl)cc2)nc2ccccc12)C1CCCCN1 (centres undefined) | > 26 µM (inactive)
16 | CCCCCCOc1ccc(CN2CCN(C)CC2)cc1 | > 26 µM (inactive)
17 | CNc1nc(N/N=C/c2cc3c(cc2[N+](=O)[O-])OCO3)nc(Nc2ccccc2)n1 | > 26 µM (inactive)
18 | O=[N+]([O-])c1ccc(-n2cnc3ccccc32)c([N+](=O)[O-])c1 | > 12 µM (inactive)
19 | CC(C)NC(=S)NC(c1ccccc1)(c1ccccc1)c1ccccc1 | > 26 µM (inactive)
20 | COc1ccc(C2/C=C\CN(C(=O)c3ccc(C)cc3)[C@H](Cc3ccccc3)C(=O)N2Cc2ccc(F)cc2)cc1 (some centres undefined) | > 26 µM (inactive)
21 | Cc1ccnc(NC(=O)c2ccc([N+](=O)[O-])s2)c1 | > 26 µM (inactive)
22 | COc1ccc(Nc2nc(N3CCCCC3)c3ccccc3n2)cc1 | 21.1 µM

Row | Structure (SMILES) | AC50
23 | CCN(CC)c1ccc(/C=N/NC(=S)NCc2ccccc2)c(O)c1 | > 26 µM (inactive)
24 | CN1/C(=C\C(=S)NC(=O)c2cccc(Br)c2)C(C)(C)c2ccccc21 | > 26 µM (inactive)
25 | C=CCNC1=C(Cl)C(=O)c2ccccc2C1=O | > 26 µM (inactive)
26 | Cc1ccc(O)c(NC(=S)NC(=O)c2ccc(-c3ccc(Cl)cc3)o2)c1 | > 26 µM (inactive)
27 | COc1ccc2nc(N=Nc3ccc(O)c4ccccc34)sc2c1 | > 26 µM (inactive)
28 | O=c1cc(N2CCN(c3cccc(Cl)c3)CC2)[nH]c(=O)n1C1CCCCC1 | > 26 µM (inactive)
29 | COc1cc(Cl)c(NC2=CC(=O)C(=O)c3ccccc32)c(OC)c1 | > 26 µM (inactive)
30 | C=C1C(O)[C@@H]2O[C@]3(CC[C@H](/C=C/C(C)[C@@H]4CC(C)=CC5(O[C@H](C[C@@](C)(O)C(=O)O)CCC5O)O4)O3)CC[C@H]2O[C@@H]1C(O)CC(C)[C@H]1OC2(CCCCO2)CCC1C (some centres undefined) | > 26 µM (inactive)
31 | O=C1C(C2=NC(c3ccccn3)C3C(=O)N(c4ccc(OC(F)(F)F)cc4)C(=O)C23)=C(O)c2ccccc21 (centres undefined) | > 26 µM (inactive)
32 | COc1ccc(-c2n(Cc3ccccc3)c3ccccc3[n+]2Cc2ccccc2)cc1 | > 26 µM (inactive)
33 | COc1ccc2[nH]c(C(=O)N/N=C/c3ccc(O)cc3O)cc2c1 | > 26 µM (inactive)
34 | Cc1cc(Br)cc(/C=N/NC(=O)c2ccc3c(c2)OCO3)c1O | > 26 µM (inactive)
35 | COc1ccc(/C=N/Nc2cc(C)nc(-n3nc(C)cc3C)n2)cc1 | > 26 µM (inactive)
36 | Nc1c(N(CCC2=CCCCC2)C(=O)COc2ccc(F)cc2)c(=O)[nH]c(=O)n1Cc1ccccc1 | > 26 µM (inactive)
37 | C=CCc1c(C)nc(C)nc1N/N=C/c1ccc(N(C)C)cc1 | > 26 µM (inactive)
38 | COc1ccc(/C=C/C(=O)c2ccc([N+](=O)[O-])o2)cc1 | > 26 µM (inactive)
39 | CC(C)(C)C(=O)Nc1ccc(C(=O)N/N=C/c2ccccc2OC(=O)c2ccc(Cl)cc2)cc1 | > 26 µM (inactive)
40 | CC(C)(C)c1ccc(C(O)CCCN2CCC(C(O)(c3ccccc3)c3ccccc3)CC2)cc1 (centres undefined) | > 26 µM (inactive)
41 | C=CC[C@@H](CC(=O)N(CCO)Cc1ccccc1)C(=O)N[C@H](COC(=O)[C@@H](CC=C)CC(=O)OC(C)(C)C)c1ccccc1 | > 26 µM (inactive)
42 | CCOC(=O)c1c(C)oc2c1C(=O)c1ccccc1C2=O | > 26 µM (inactive)
43 | Nc1ccccc1C#CC(=O)c1ccccc1 | > 26 µM (inactive)
44 | Cc1ccc(C)c(S(=O)(=O)Nc2ccc(O)c3ccccc23)c1 | > 26 µM (inactive)

Row | Structure (SMILES) | AC50
45 | Cc1ccc(S(=O)(=O)/N=C2\C=C(Nc3cccc(C(=O)O)c3)C(=O)c3ccccc32)c(C)c1 | > 26 µM (inactive)
46 | CC(=O)c1ccc(NC(=S)NCc2cccnc2)cc1 | > 26 µM (inactive)
47 | COc1ccc(N(C(=O)CCl)C(C(=O)NCCc2ccccc2)c2cccs2)cc1Cl (centres undefined) | > 26 µM (inactive)
48 | O=[N+]([O-])c1ccc(S(=O)(=O)c2ccccc2)nc1 | > 26 µM (inactive)
49 | C#CCOCCOCCOCCNc1nc(N2CCN(C(=O)CCCCCCCCCCNC(=O)Cn3cc(C[C@@H](C)O)nn3)CC2)nc(N2CCN(C(=O)CCCCCCCCCCNC(=O)[C@@H]([C@H](C)CC)n3cc(CCCCCN)nn3)CC2)n1 | > 26 µM (inactive)
50 | CC1CCC(C(C)C)C(OC(=O)Cn2c(COc3ccccc3)[n+](C)c3ccccc32)C1 (centres undefined) | > 26 µM (inactive)
51 | C=C1CCc2c([nH]c3ccc(OCC(C)C)cc23)C1=O | > 26 µM (inactive)
52 | CCC[C@@H](CN1CCC[C@H]1CN1C(N)=NC[C@@H]1Cc1ccccc1)N1C[C@@H]([C@H](C)CC)N(CCCC2CCCC2)C1=N | > 26 µM (inactive)
53 | Oc1c(Br)cc(Br)cc1/C=N/NC(=S)N[C@H]1CC2C=CC1C2 (some centres undefined) | > 26 µM (inactive)
54 | CCCCCc1ccc(OCCCC[n+]2cccc(C)c2)c(CCCCC)c1 | > 26 µM (inactive)
55 | COc1ccc(/C=N/N2CCN(Cc3ccccc3)CC2)cc1 | > 26 µM (inactive)
56 | COc1ccc(-n2cc(-c3ccc(OC(F)F)cc3)[n+]3c2CCCCC3)cc1 | > 26 µM (inactive)
57 | CC(C)(C)n1[nH]c2c3c(ccc2c1=O)C(=O)c1ccccc1C3=O | > 26 µM (inactive)
58 | COc1ccc(-c2cn(Cc3ccc(C(=O)c4ccccc4)cc3)nn2)cc1 | > 26 µM (inactive)
59 | COC(=O)c1cc(C)nc2c1C(=O)C(=O)C=C2N1CCOCC1 | > 26 µM (inactive)
60 | Oc1ccc(N=Nc2nccs2)c(O)c1 | > 26 µM (inactive)
61 | Oc1cccc(/C=N/Nc2ccc(Cl)nn2)c1O | > 26 µM (inactive)
62 | CCC(=O)NC(c1cc(Cl)c2cccnc2c1O)C(C)C (centres undefined) | > 26 µM (inactive)
63 | O=C(NCCCn1ccnc1)c1ccc(N2CCCCCC2)c([N+](=O)[O-])c1 | > 26 µM (inactive)
64 | Cc1oc2c(c1C(=O)N1CCOCC1)C(=O)c1ccccc1C2=O | > 26 µM (inactive)
